Literature values, collected in patent US20250115648A1 (priority 2013, published 2025).
Values joined by “and” are separate entries in the source; they are usually repeats but may differ in a detail not shown here. Equal entries are not always repeated.

Details: cited from earlier work; for Peak Abs.: peak absorbance wavelength of exemplary fluorescent reporter molecule; for Peak Em.: peak emission wavelength of exemplary fluorescent reporter molecule

| SMILES | Peak Abs. | Peak Em. |
| --- | --- | --- |
| CN(C)c1ccc2c(-c3ccc(CCl)cc3)c3ccc(=[N+](C)C)cc-3oc2c1.[Cl-] | 551 nanometers | 576 nanometers |
| O=S(=O)(O)c1cccc2cccc(Nc3ccccc3)c12 [1,8-ANS] | 372 nanometers | 480 nanometers |
| CCCCCCCCCCCCc1cc2nc3ccc(O)cc3oc-2cc1=O [2-dodecylresorufm] | 582 nanometers | 595 nanometers |
| Cc1c(CC(=O)O)c(=O)oc2cc(N)ccc12 [AMCA, aminomethylcoumarin] | 345 nanometers | 425 nanometers |
| Cc1c(CC(=O)NCCCCCC(=O)O)c(=O)oc2cc(N)ccc12 [AMCA-X] | 353 nanometers | 442 nanometers |
| Nc1ccc2cc3ccc(N)cc3[n+](CCCC(=O)O)c2c1.[O-][Cl+3]([O-])([O-])[O-] [ATTO 465] | 453 nanometers | 507 nanometers |
| CC[N+]1=c2cc3c(cc2C(CS(=O)(=O)O)=CC1(C)C)=Cc1cc2c(cc1C3(C)C)N(CCCC(=O)O)C(C)(C)CC2C.[O-][Cl+3]([O-])([O-])[O-] (stereo not shown) [ATTO 647] | 644 nanometers | 670 nanometers |
| CC[N+]1=c2cc3c(cc2CCC1)=Nc1cc2c(cc1O3)N(CCCC(=O)O)C(C)(C)C=C2CS(=O)(=O)[O-] [ATTO 680] | 680 nanometers | 700 nanometers |
| CCN1c2cc3c(cc2C(C)=CC1(C)C)N=c1cc2c(cc1O3)=[N+](CCCC(=O)O)C(C)(C)C=C2CS(=O)(=O)O [ATTO 700] | 699 nanometers | 719 nanometers |
| CC1(C)C=C(CS(=O)(=O)O)c2cc3c(C(F)(F)F)cc(=O)oc3cc2N1CCCCCC(=O)ON1C(=O)CCC1=O.CCN(CC)CC [Alexa Fluor 430] |  | 540 nanometers |
| CC1CC(C)(C)Nc2c1cc1c(c2S(=O)(=O)[O-])Oc2c(S(=O)(=O)[O-])c3c(cc2=C1c1c(Cl)c(SCC(=O)NCCCCCC(=O)ON2C(=O)CCC2=O)c(Cl)c(Cl)c1C(=O)O)C(C)CC(C)(C)N=3.[H+].[Na+] (stereo not shown) [Alexa Fluor 546] | 561 nanometers | 572 nanometers |
| CN1C(=Cc2cc[n+](CCC[N+](C)(C)CCC[N+](C)(C)CCC[n+]3ccc(C=C4Sc5ccccc5N4C)cc3)cc2)Sc2ccccc21.[I-].[I-].[I-].[I-] [BOBO-1] | 570 nanometers | 602 nanometers |
| CN1/C(=C/C=C/c2cc[n+](CCC[N+](C)(C)CCC[N+](C)(C)CCC[n+]3ccc(/C=C/C=C4/Sc5ccccc5N4C)cc3)cc2)Sc2ccccc21.[I-].[I-].[I-].[I-] [BOBO-3] | 570 nanometers and 571 nanometers | 602 nanometers and 606 nanometers |
| CC1=CC(C)=[N+]2C1=Cc1c(C)cc(C)n1[B-]2(F)F [BODIPY 505/515] | 502 nanometers | 540 nanometers |
| O=C(COc1ccc(/C=C/c2ccc3n2[B-](F)(F)[N+]2=C(c4cccs4)C=CC2=C3)cc1)NCCCCCC(=O)ON1C(=O)CCC1=O [Bodipy 630/650-X] |  | 641 nanometers |
| O=C(COc1ccc(C2=[N+]3C(=Cc4ccc(-c5cccs5)n4[B-]3(F)F)C=C2)cc1)NCCCCCC(=O)ON1C(=O)CCC1=O [Bodipy TR-X] | 588 nanometers | 621 nanometers |
| O=C([O-])CN(CC(=O)[O-])c1ccccc1OCCOc1cc(NC(=O)c2ccc3c(c2)C(=O)OC32c3cc(Cl)c([O-])cc3Oc3cc([O-])c(Cl)cc32)ccc1N(CC(=O)[O-])CC(=O)[O-].[K+].[K+].[K+].[K+].[K+].[K+] [Calcium Green-1] | 506 nanometers | 540 nanometers |
| O=S(=O)(O)c1cc(Nc2nc(Nc3ccccc3)nc(N(CCO)CCO)n2)ccc1/C=C/c1ccc(Nc2nc(Nc3ccccc3)nc(N(CCO)CCO)n2)cc1S(=O)(=O)O [Calcofluor White] | 350 nanometers | 440 nanometers |
| CC(=O)Oc1ccc2c(c1)Oc1cc(OC(C)=O)ccc1C21OC(=O)c2cc(CCl)ccc21 [CellTracker Green] | 490 nanometers | 540 nanometers |
| CC1=CC(C)(C)N(C)c2cc3[o+]c4cc5c(cc4c(-c4cc(NC(=O)c6ccc(CCl)cc6)ccc4C(=O)[O-])c3cc21)C(C)=CC(C)(C)N5C.CC1=CC(C)(C)N(C)c2cc3[o+]c4cc5c(cc4c(-c4ccc(NC(=O)c6ccc(CCl)cc6)cc4C(=O)[O-])c3cc21)C(C)=CC(C)(C)N5C [CellTracker Red CMTPX] | 584 nanometers | 613 nanometers |
| O=c1cc(CBr)c2cc3c4c(c2o1)CCCN4CCC3 [CellTracker Violet BMQC] | 415 nanometers | 516 nanometers |
| O=C([O-])c1ccc(C2=c3cc4c5c(c3Oc3c2cc2c6c3CCCN6CCC2)CCC[N+]=5CCC4)c(C(=O)O)c1 [Compound 5-ROX] | 577 nanometers | 603 nanometers |
| Cc1c2oc3c(C)c(N)cc(C(=O)N[C@@H]4C(=O)N[C@H](C(C)C)C(=O)N5CCC[C@H]5C(=O)N(C)CC(=O)N(C)[C@@H](C(C)C)C(=O)O[C@@H]4C)c3nc-2c(C(=O)N[C@@H]2C(=O)N[C@H](C(C)C)C(=O)N3CCC[C@H]3C(=O)N(C)CC(=O)N(C)[C@@H](C(C)C)C(=O)O[C@@H]2C)c(N)c1=O [Compound 7-AAD, 7-AAD] | 549 nanometers | 644 nanometers |
| CCCCCCCCCCCC[N+](C)(CCCS(=O)(=O)[O-])Cc1ccc2oc(-c3ccc(N(CC)CC)cc3)c(O)c(=O)c2c1 (stereo not shown) [Compound F2N12S] | 405 nanometers |  |
| CCN1C(=CC=CC2=[N+](CCCCCC(=O)O)c3ccc(S(=O)(=O)O)cc3C2(C)C)C(C)(C)c2cc(S(=O)(=O)[O-])ccc21 [Cy3] | 552 nanometers | 570 nanometers |
| CCN1C(=CC=CC=CC=CC2=[N+](CCCCCC(=O)O)c3ccc(S(=O)(=O)O)cc3C2(C)C)C(C)(C)c2cc(S(=O)(=O)[O-])ccc21 [Cy7] | 745 nanometers | 766 nanometers |
| CC1(C)C2=C(Cl)C(=O)C(Cl)=CC2=Nc2ccc(O)cc21 [DDAO] | 648 nanometers | 658 nanometers |
| CN(C)CCNc1ccc(O)c2c1C(=O)c1c(O)ccc(NCCN(C)C)c1C2=O [DRAQ5] | 650 nanometers | 680 nanometers |
| CCN1c2cc3c(cc2C(C)=CC1(C)C)C(=CC=CC1=[N+](CCCCCC(=O)O)c2ccc(S(=O)(=O)[O-])cc2C1(C)C)C=C(c1ccccc1)O3 [DY-675] | 675 nanometers | 699 nanometers |
